According to ChEMBL document CHEMBL1129812, “Oestrone 3-O-(N-acetyl)sulphamate, a potential molecular probe of the active site of oestrone sulphatase” (Bioorg Med Chem Lett, 1997):
Activity calls are given as the source filed them. No cut-off for these calls is given here.

Tests used:
[1] = target: T1, Steryl-sulfatase (Homo sapiens) (UniProt P08842); assay: Compound was tested for percent inhibitory activity against Estrone sulfatase 1 (E1-STS) at 10 uM in placental microsomes; conditions: Placenta
T1 sequence (whole entry): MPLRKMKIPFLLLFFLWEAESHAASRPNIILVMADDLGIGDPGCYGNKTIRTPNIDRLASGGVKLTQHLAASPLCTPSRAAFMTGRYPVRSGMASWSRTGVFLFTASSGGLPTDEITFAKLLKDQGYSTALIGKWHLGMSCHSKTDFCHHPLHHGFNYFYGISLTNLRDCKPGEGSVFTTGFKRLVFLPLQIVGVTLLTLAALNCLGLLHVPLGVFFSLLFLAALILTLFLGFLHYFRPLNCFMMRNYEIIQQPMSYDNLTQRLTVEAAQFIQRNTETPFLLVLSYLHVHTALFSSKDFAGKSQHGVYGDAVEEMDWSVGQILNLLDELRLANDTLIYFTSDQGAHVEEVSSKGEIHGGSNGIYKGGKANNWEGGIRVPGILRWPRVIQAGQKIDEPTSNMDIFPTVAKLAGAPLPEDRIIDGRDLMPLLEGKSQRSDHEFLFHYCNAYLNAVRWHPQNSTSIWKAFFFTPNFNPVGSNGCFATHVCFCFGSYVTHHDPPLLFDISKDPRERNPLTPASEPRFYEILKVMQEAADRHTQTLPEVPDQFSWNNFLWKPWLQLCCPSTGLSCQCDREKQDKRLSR

[2] = target: T1, Steryl-sulfatase (Homo sapiens); assay: Compound was tested for percent inhibitory activity against Estrone sulfatase 1 (E1-STS) at 0.20 uM in placental microsomes; conditions: Placenta
[3] = target: T1, Steryl-sulfatase (Homo sapiens); assay: Compound was tested for percent inhibitory activity against Estrone sulfatase 1 (E1-STS) at 0.10 uM in placental microsomes; conditions: Placenta
[4] = target: T1, Steryl-sulfatase (Homo sapiens); assay: Compound was tested for percent inhibitory activity against Estrone sulfatase 1 (E1-STS) at 25 uM in placental microsomes; conditions: Placenta
[5] = target: T1, Steryl-sulfatase (Homo sapiens); assay: In vitro percentage inhibition of Estrone sulfatase 1 (EI-STS) activity at concentration of 0.1 micro M in intact MCF-7 breast cancer cells; type: cell-based; conditions: MCF7
[6] = target: T1, Steryl-sulfatase (Homo sapiens); assay: Compound was tested for percent inhibitory activity against Estrone sulfatase 1 (E1-STS) at 50 uM in placental microsomes; conditions: Placenta
[7] = target: T1, Steryl-sulfatase (Homo sapiens); assay: Compound was tested for percent inhibitory activity against Estrone sulfatase 1 (E1-STS) at 20 uM in placental microsomes; conditions: Placenta
[8] = target: T1, Steryl-sulfatase (Homo sapiens); assay: Compound was tested for percent inhibitory activity against Estrone sulfatase 1 (E1-STS) at 100 uM in placental microsomes; conditions: Placenta
[9] = target: T2, Steryl-sulfatase (Rattus norvegicus) (UniProt P15589); assay: In vivo inhibition of rat liver Estrone sulfatase 1 (E1-STS) by oral or subcutaneous dose; Almost complete inhibition; type: organism-based
T2 sequence (whole entry): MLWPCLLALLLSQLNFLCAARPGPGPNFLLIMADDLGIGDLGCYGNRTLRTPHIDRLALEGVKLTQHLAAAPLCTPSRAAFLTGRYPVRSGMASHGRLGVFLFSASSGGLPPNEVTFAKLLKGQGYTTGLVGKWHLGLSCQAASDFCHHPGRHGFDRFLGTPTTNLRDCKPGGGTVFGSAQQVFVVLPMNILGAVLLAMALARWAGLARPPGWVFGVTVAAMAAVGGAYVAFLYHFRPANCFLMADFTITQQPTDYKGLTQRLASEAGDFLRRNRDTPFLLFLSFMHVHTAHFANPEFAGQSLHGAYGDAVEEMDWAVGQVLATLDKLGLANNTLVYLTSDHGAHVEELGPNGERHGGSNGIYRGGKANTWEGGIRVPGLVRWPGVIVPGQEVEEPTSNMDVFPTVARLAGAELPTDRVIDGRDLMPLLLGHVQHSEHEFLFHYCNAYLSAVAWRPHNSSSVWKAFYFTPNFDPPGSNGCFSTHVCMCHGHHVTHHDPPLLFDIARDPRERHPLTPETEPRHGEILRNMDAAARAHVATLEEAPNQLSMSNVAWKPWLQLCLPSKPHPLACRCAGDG

[10] = target: T1, Steryl-sulfatase (Homo sapiens); conditions: Placenta; Microsomes; 1.0 uM
Description: Compound was tested for percent inhibitory activity against Estrone sulfatase 1 (E1-STS) at 1.0 uM in placental microsomes

[11] = target: T1, Steryl-sulfatase (Homo sapiens); conditions: Placenta; Microsomes; 0.1 uM
Description: Compound was tested for percent inhibitory activity against Estrone sulfatase 1 (E1-STS) at 0.1 uM in placental microsomes

[12] = target: T1, Steryl-sulfatase (Homo sapiens); conditions: Placenta; Microsomes; 0.2 uM
Description: Compound was tested for percent inhibitory activity against Estrone sulfatase 1 (E1-STS) at 0.2 uM in placental microsomes

Structure (SMILES)	inhibition [5] [%]	inhibition [6] [%]	inhibition [7] [%]	inhibition [8] [%]	other results
CC(=O)NS(=O)(=O)Oc1ccc2c(c1)CCC1[C@@H]2CC[C@]2(C)C(=O)CC[C@@H]12 (single isomer, unassigned)					inhibition [1]: 92%; inhibition [2]: 30%; inhibition [3]: 63%; inhibition [4]: > 99%
CN(C)S(=O)(=O)Oc1ccc2c(c1)CCC1[C@@H]2CC[C@]2(C)C(=O)CC[C@@H]12 (single isomer, unassigned)	50				
CNS(=O)(=O)Oc1ccc2c(c1)CCC1[C@@H]2CC[C@]2(C)C(=O)CC[C@@H]12 (single isomer, unassigned)	80				
C[C@]12CC[C@@H]3c4ccc(OS(=O)(=O)N(Cc5ccccc5)Cc5ccccc5)cc4CCC3[C@@H]1CCC2=O (single isomer, unassigned)		63	43	75	
C[C@]12CC[C@@H]3c4ccc(OS(=O)(=O)N5CCCCC5)cc4CCC3[C@@H]1CCC2=O (single isomer, unassigned)		17	13	20	
C[C@]12CC[C@@H]3c4ccc(OS(N)(=O)=O)cc4CCC3[C@@H]1CCC2=O (single isomer, unassigned)					inhibition [9]: Active; inhibition [10]: 95%; inhibition [11]: 50%; inhibition [12]: 82%
